≈ marks a conversion by molar mass, not a printed value.
Experiments:
Type in all cases: functional
Bacillus subtilis [1] = assay: Antimicrobial activity against Bacillus subtilis using pH 4.0 buffer as solvent by agar diffusion test
Escherichia coli [2] = assay: Antimicrobial activity against Escherichia coli using pH 4.0 buffer as solvent by agar diffusion test
Staphylococcus aureus [3] = assay: Antimicrobial activity against Staphylococcus aureus using pH 4.0 buffer as solvent by agar diffusion test
Pseudomonas aeruginosa [4] = assay: Antimicrobial activity against Pseudomonas aeruginosa using pH 4.0 buffer as solvent by agar diffusion test
Bacillus subtilis [5] = assay: Antimicrobial activity against Bacillus subtilis using distilled water as solvent by agar diffusion test
Staphylococcus aureus [6] = assay: Antimicrobial activity against Staphylococcus aureus using distilled water as solvent by agar diffusion test
Escherichia coli [7] = assay: Antimicrobial activity against Escherichia coli using distilled water as solvent by agar diffusion test
Pseudomonas aeruginosa [8] = assay: Antimicrobial activity against Pseudomonas aeruginosa using distilled water as solvent by agar diffusion test

Row | SMILES | MIC (Bacillus subtilis [1]) | MIC (Escherichia coli [2]) | MIC (Staphylococcus aureus [3]) | MIC (Pseudomonas aeruginosa [4]) | MIC (Bacillus subtilis [5]) | MIC (Staphylococcus aureus [6]) | MIC (Escherichia coli [7]) | MIC (Pseudomonas aeruginosa [8])
1 | C=CC1CN(C)[C@@H]2Cc3c([nH]c4ccccc34)[C@@H](/C=C3\c4[nH]c5ccccc5c4CN4CC[C@H]3/C(=C\C)C4)C[C@@H]1C2C(=O)OC (some centres undefined) [VOBAPARICINE] | 50 mg/L (≈ 83.2 µM) | 100 mg/L (≈ 166 µM) |  |  |  |  |  | 
2 | C=CC1CN(C)[C@H]2Cc3c([nH]c4ccccc34)[C@H](c3c(OC)ccc4c5c([nH]c34)[C@]3(C(=O)OC)C[C@@H]4C[C@H](CC)[C@@H]3N(CC5)C4O)C[C@H]1C2C(=O)OC (some centres undefined) | 14 mg/L (≈ 19.4 µM) | 750 mg/L (≈ 1040 µM) | 45 mg/L (≈ 62.4 µM) | 150 mg/L (≈ 208 µM) |  |  |  | 
3 | C=CC1CN(C)[C@H]2Cc3c([nH]c4ccccc34)[C@H](c3cc4c5c([nH]c4cc3OC)[C@]3(C(=O)OC)C[C@@H]4C[C@H](CC)[C@@H]3N(CC5)C4)C[C@H]1C2C(=O)OC (some centres undefined) [CONODURAMINE] | 15 mg/L (≈ 21.3 µM) | 110 mg/L (≈ 156 µM) | 35 mg/L (≈ 49.7 µM) | 400 mg/L (≈ 567 µM) |  |  |  | 
4 | C=CC1CN(C)[C@H]2Cc3c([nH]c4ccccc34)[C@H](c3c(OC)ccc4c5c([nH]c34)[C@]3(C(=O)OC)C[C@@H]4C[C@H](CC)[C@@H]3N(CC5)C4)C[C@H]1C2C(=O)OC (some centres undefined) [CONODURINE] | 4 mg/L (≈ 5.67 µM) | 70 mg/L (≈ 99.3 µM) | 50 mg/L (≈ 70.9 µM) | 400 mg/L (≈ 567 µM) |  |  |  | 
5 | CC[C@H]1C[C@H]2C[C@@]3(C(=O)OC)c4[nH]c5cc(OC)c(OC)cc5c4CCN(C2O)[C@@H]13 (some centres undefined) | 60 mg/L (≈ 145 µM) | > 1000 mg/L | 140 mg/L (≈ 338 µM) | > 1000 mg/L |  |  |  | 
6 | CN[C@@H]1[C@H](O[C@H]2[C@H](O[C@H]3[C@H](O)[C@@H](O)[C@H](N=C(N)N)[C@@H](O)[C@@H]3N=C(N)N)O[C@@H](C)[C@]2(O)C=O)O[C@@H](CO)[C@H](O)[C@H]1O [STREPTOMYCIN] | 1 mg/L (≈ 1.72 µM) | 80 mg/L (≈ 138 µM) | 5 mg/L (≈ 8.6 µM) | 7 mg/L (≈ 12 µM) | 0.2 mg/L (≈ 0.344 µM) | 1 mg/L (≈ 1.72 µM) | 0.5 mg/L (≈ 0.86 µM) | 12 mg/L (≈ 20.6 µM)
7 | C=CC1CN(C)[C@H]2Cc3c([nH]c4ccccc34)[C@H](c3cc4c5c([nH]c4cc3OC)[C@]3(C(=O)OC)C[C@@H]4C[C@H](CC)[C@@H]3N(CC5)C4O)C[C@H]1C2C(=O)OC (some centres undefined) | 8 mg/L (≈ 11.1 µM) | 170 mg/L (≈ 236 µM) | 65 mg/L (≈ 90.2 µM) | 65 mg/L (≈ 90.2 µM) |  |  |  | 
8 | CC[C@H]1C[C@H]2C[C@@]3(C(=O)OC)c4[nH]c5cc(OC)ccc5c4CCN(C2O)[C@@H]13 (some centres undefined) | 50 mg/L (≈ 130 µM) | 500 mg/L (≈ 1300 µM) | 500 mg/L (≈ 1300 µM) | 300 mg/L (≈ 780 µM) |  |  |  | 

Source: ChEMBL document CHEMBL1151651, “Antimicrobially active alkaloids from Tabernaemontana chippii” (1985)
